Data reported in article PMC5454942, “The Potential of Triterpenoids from Loquat Leaves (Eriobotrya japonica) for Prevention and Treatment of Skin Disorder” (International Journal of Molecular Sciences, 2017).
Values after ≈ are worked out from the molar mass of the structure shown. Where two headings read alike, the source gives them in different places.

Experiments:
NHDF cells = test: Skin type I collagen synthesis promoting assay (ELISA, with MTT); assay type: cell-based, human; settings: 5 μg/mL, fold of control
Method: The assay for measuring the promotion of skin collagen synthesis was described by Kishikawa et al.. Adult NHDF cells (Lonza, Tokyo) were routinely maintained in 10% FBS and 1% antibiotic-antimycotic (Invitrogen) in Dulbecco’s modified Eagle’s medium (DMEM, Wako). After growing to confluence, cells at a density of 5 × 10^3 cells/well were seeded on 96-well plates for 24 h before the treatment. The medium was replaced with a mixture of 1 μL of sample solution (DMSO < 0.5% per well) and 99 μL of DMEM supplemented with 0.5% FBS. After 72 h of cultivation, the amount of collagen in the medium was measured using a human type I collagen enzyme-linked immunosorbent assay (ELISA) kit (ACEL, Kanagawa, Japan). The amount of collagen production was calculated using a standard curve prepared by measurement by the same ELISA. The cells remaining in the 96-well plate were subjected to an MTT assay. Ascorbic acid (100 μM, Wako) was used as a positive control.

Propionibacterium acnes = test: Anti-bacterial assay (growth inhibition, MIC/MBC by broth microdilution); assay type: cell-based; settings: for MBC / MIC: P. acnes, broth microdilution; for activity against P. acnes (in words): at their maximum solubility; for Inhibition Rate (P. acnes growth): concentration 100 μg/mL
Method: The antibacterial assay was based mostly on the methods described by Tanaka et al. with slight modification. Propionibacterium acne (NBRC 107605) was used for the antibacterial assay. A single colony of the test strain was taken and 5 mL of Gifu anaerobic medium (GAM) broth (Nissui, Tokyo) was added to it. This culture was incubated at 37 °C for 30 h. It was then added to the bacterial suspension to prepare a bacterial concentration at 10^5 CFU/mL. The bacterial solution was used for the subsequent antibacterial assay. Each compound was dissolved in DMSO, and benzalkonium chloride (Wako) was used as a positive control. The plate was incubated at 37 °C for 30 h. Finally, bacterial growth was measured by a microplate reader at 630 nm. The MIC and MBC were evaluated by the standard broth microdilution method.

RBL-2H3 cells = test: Cell viability of RBL-2H3 cells (parallel MTT); assay type: cell-based, rat; settings: 25 μg/ml, RBL-2H3 cells
Method: The anti-allergy assay was based mostly on the methods described by Zhu et al. and Yun et al. with slight modification. Rat basophilic leukemia (RBL-2H3) cells were obtained from the Riken Bio-resource Center Cell Bank (Tsukuba, Japan). RBL-2H3 cells were incubated in EMEM medium containing 10% FBS and 1% antibiotics–antimycotics at 37 °C. The cells were seeded on a 96-well plate (2 × 10^5 cells/well). After 24 h of incubation, the medium was supplemented with 0.5 μg/mL anti-DNP (dinitrophenol) mouse immunoglobulin E (IgE) (Sigma-Aldrich). After an additional 24 h of incubation, the medium was replaced with 100 μL of Tyrode buffer. The sample dissolved in DMSO (<0.5% per well) was added, and the cell plate was incubated again for 30 min, then replaced with 100 μL of tyrode buffer containing 50 μg/mL DNP-bovine serum albumin (BSA) (Invitrogen, Carlsbad, CA, USA). After 1 h of incubation, 50 μL of the supernatant was collected from each well and mixed with 50 μL of substrate solution (p-nitrophenyl-N-acetyl-β-glucosaminide, 2 mM; Sigma-Aldrich) in a new 96-well plate. The mixture was incubated at room temperature on a shaker for 3 h. Finally, 100 μL of stop solution was added, and the absorbance was read at 405 nm. A parallel MTT experiment was performed to measure the cell viability. The MTT experiment was done exactly as described.

B16 melanoma cells [1] = test: Cell viability of B16 melanoma cells (MTT); settings: for Inhibition rate (100% − cell viability): B16 cells; for CC50 cell viability / CC50: B16 melanoma cells, MTT; for CC50: read-out: CC50 (cell viability)
Method: (§1) This assay was performed as described by Arung et al.. The mouse melanoma cell line B16 was obtained from the Riken Bioresource Center Cell Bank (Tsukuba, Japan). The B16 melanoma cells were maintained in Eagle’s Minimal Essential Medium (EMEM, Nissui Chemical, Tokyo) supplemented with 10% (v/v) fetal bovine serum (FBS; Gibco, Carlsbad, CA, USA) and 0.09 mg/mL theophylline (Sigma-Aldrich, St. Louis, MO, USA). […] After 24 h, test samples were dissolved in DMSO (<0.2% per well) and sample solution were added to each well. Arbutin (Tokyo Kasei Kogyo, Tokyo) was used as a positive control. The cells were incubated for an additional 48 h, and then the medium was replaced with fresh medium containing each sample again. After 24 h, the melanin content and the cell viability were measured using a microplate reader (BioTek-ELX800, BioTek Instruments, Winooski, VT, USA) at 405 nm and 570 nm, respectively. Cell viability was measured using the MTT (3-(4,5-dimethylthiazol-2-yl)-2,5-diphenyltetrazolium bromide) method.

B16 melanoma cells [2] = test: Anti-melanogenesis assay (melanin content); assay type: cell-based, mouse; settings: for Inhibition rate (100% − melanin synthesis): B16 cells; for IC50 melanin / IC50: B16 melanoma cells; for IC50: read-out: IC50 (melanin synthesis)
Method: as §1

in vitro = settings: mouse
Method: as §1

Compound: C[C@@H]1CC[C@]2(C(=O)O)CC[C@]3(C)C(=CC[C@@H]4[C@@]5(C)C[C@@H](O)[C@H](OC(=O)/C=C/c6ccc(O)cc6)C(C)(C)[C@@H]5CC[C@]43C)[C@@H]2[C@]1(C)O (relative stereo) [Compound 17, 3-O-trans-p-coumaroyl tormentic acid]
- CP/CV value (collagen production %/cell viability %) (NHDF cells): 1.2
- MBC (Propionibacterium acnes): 200 µg/mL (≈ 315 µM)
- MIC (Propionibacterium acnes): 100 µg/mL (≈ 158 µM)
- activity against P. acnes (in words) (Propionibacterium acnes): active
- Inhibition Rate (P. acnes growth) (Propionibacterium acnes): 101.4 ± 2.1%
- Cell viability (RBL-2H3 cells): 99.8 ± 7.0%
- Inhibition rate (100% − cell viability) (B16 melanoma cells [1]; 1 μg/ml): 0.0 ± 8.4%
- Inhibition rate (100% − cell viability) (B16 melanoma cells [1]; 2.5 μg/ml): 5.1 ± 6.0%
- Inhibition rate (100% − cell viability) (B16 melanoma cells [1]; 5 μg/ml): 10.7 ± 10.0%
- Inhibition rate (100% − cell viability) (B16 melanoma cells [1]; 10 μg/ml): 41.1 ± 9.2%
- Inhibition rate (100% − cell viability) (B16 melanoma cells [1]; 20 μg/ml): 61.0 ± 1.6%
- CC50 cell viability (B16 melanoma cells [1]): 15.6 µg/mL (≈ 24.6 µM)
- CC50 (B16 melanoma cells [1]): 24 µM
- Inhibition rate (100% − melanin synthesis) (B16 melanoma cells [2]; 1 μg/ml): 2.8 ± 0.9%
- Inhibition rate (100% − melanin synthesis) (B16 melanoma cells [2]; 2.5 μg/ml): 6.2 ± 1.7%
- Inhibition rate (100% − melanin synthesis) (B16 melanoma cells [2]; 5 μg/ml): 11.1 ± 0.6%
- Inhibition rate (100% − melanin synthesis) (B16 melanoma cells [2]; 10 μg/ml): 29.4 ± 6.8%
- Inhibition rate (100% − melanin synthesis) (B16 melanoma cells [2]; 20 μg/ml): 30.5 ± 6.0%
- IC50 melanin (B16 melanoma cells [2]): > 20.0 µg/mL
- IC50 (B16 melanoma cells [2]): > 30.9 µM

Compound: C[C@@H]1CC[C@]2(C(=O)O)CC[C@]3(C)C(=CC[C@@H]4[C@@]5(C)C[C@@H](O)[C@H](OC(=O)/C=C\c6ccc(O)cc6)C(C)(C)[C@@H]5CC[C@]43C)[C@@H]2[C@]1(C)O (relative stereo) [Compound 18, 3-O-cis-p-coumaroyl tormentic acid]
- CP/CV value (collagen production %/cell viability %) (NHDF cells): 1.1
- MBC (Propionibacterium acnes): 200 µg/mL (≈ 315 µM)
- MIC (Propionibacterium acnes): 100 µg/mL (≈ 158 µM)
- activity against P. acnes (in words) (Propionibacterium acnes): active
- Inhibition Rate (P. acnes growth) (Propionibacterium acnes): 103.5 ± 2.2%
- Cell viability (RBL-2H3 cells): 104.6 ± 6.7%
- Inhibition rate (100% − cell viability) (B16 melanoma cells [1]; 1 μg/ml): 7.0 ± 8.8%
- Inhibition rate (100% − cell viability) (B16 melanoma cells [1]; 2.5 μg/ml): 6.6 ± 11.1%
- Inhibition rate (100% − cell viability) (B16 melanoma cells [1]; 5 μg/ml): 12.6 ± 8.4%
- Inhibition rate (100% − cell viability) (B16 melanoma cells [1]; 10 μg/ml): 42.4 ± 14.9%
- Inhibition rate (100% − cell viability) (B16 melanoma cells [1]; 20 μg/ml): 80.1 ± 9.5%
- CC50 cell viability (B16 melanoma cells [1]): 12.6 µg/mL (≈ 19.8 µM)
- CC50 (B16 melanoma cells [1]): 19.5 µM
- Inhibition rate (100% − melanin synthesis) (B16 melanoma cells [2]; 1 μg/ml): 0.0 ± 2.1%
- Inhibition rate (100% − melanin synthesis) (B16 melanoma cells [2]; 2.5 μg/ml): 0.0 ± 5.3%
- Inhibition rate (100% − melanin synthesis) (B16 melanoma cells [2]; 5 μg/ml): 0.0 ± 3.8%
- Inhibition rate (100% − melanin synthesis) (B16 melanoma cells [2]; 10 μg/ml): 35.6 ± 1.1%
- Inhibition rate (100% − melanin synthesis) (B16 melanoma cells [2]; 20 μg/ml): 47.1 ± 6.0%
- IC50 melanin (B16 melanoma cells [2]): > 20.0 µg/mL
- IC50 (B16 melanoma cells [2]): > 30.9 µM

Compound: OC[C@H]1O[C@@H](Oc2ccc(O)cc2)[C@H](O)[C@@H](O)[C@@H]1O [Arbutin, reference compound]
- CC50 at 72 h (in vitro): 1820 µM
- IC50 (B16 melanoma cells [2]; Mus musculus): 976 µM
